Test results reported in patent publication EP1025114B1, “3'-N-MODIFIED 6-O-SUBSTITUTED ERYTHROMYCIN KETOLIDE DERIVATIVES HAVING ANTIBACTERIAL ACTIVITY” (priority 1997, dated 1999).

Legend:
Experiment in all cases: In vitro antibacterial activity, agar dilution MIC
Assay type in all cases: cell-based
[1] = test system: Streptococcus bovis A-5169; conditions: Streptococcus bovis A-5169 (organism code JJ); BHI agar, 35-37 °C, 20 to 24 hours; unit assumed
Procedure: (§1) Representative compounds of the present invention were assayed in vitro for antibacterial activity as follows: Twelve petri dishes containing successive aqueous dilutions of the test compound mixed with 10 mL of sterilized Brain Heart infusion (BHI) agar (Difco 0418-01-5) were prepared. Each plate was inoculated with 1:100 (or 1:10 for slow-growing strains, such as Micrococcus and Streptococcus) dilutions of up to 32 different microorganisms, using a Steers replicator block. […] In addition, a control plate, using BHI agar containing no test compound, was prepared and incubated at the beginning and end of each test.
(§2) An additional plate containing a compound having known susceptibility patterns for the organisms being tested and belonging to the same antibiotic class as the test compound was also prepared and incubated as a further control, as well as to provide test-to-test comparability.
(§3) After incubation, each plate was visually inspected. The minimum inhibitory concentration (MIC) was defined as the lowest concentration of drug yielding no growth, a slight haze, or sparsely isolated colonies on the inoculum spot as compared to the growth control.

Escherichia coli DC-2 = Escherichia coli DC-2 (organism code SS); BHI agar, 35-37 °C, 20 to 24 hours; unit assumed
Procedure: as §1, §2, §3

[2] = test system: Streptococcus Pheumoniae 5979; conditions: Streptococcus Pheumoniae 5979 (organism code ZZ); BHI agar, 35-37 °C, 20 to 24 hours; unit assumed
Procedure: as §1, §2, §3

[3] = test system: Staphylococcus aureus ATCC 6538P; conditions: Staphylococcus aureus ATCC 6538P (organism code AA); BHI agar, 35-37 °C, 20 to 24 hours; unit assumed
Procedure: as §1, §2, §3

[4] = test system: Enterococcus faecium ATCC 8043; conditions: Enterococcus faecium ATCC 8043 (organism code II); BHI agar, 35-37 °C, 20 to 24 hours; unit assumed
Procedure: as §1, §2, §3

[5] = test system: Micrococcus luteus ATCC 4698; conditions: Micrococcus luteus ATCC 4698 (organism code PP); BHI agar, 35-37 °C, 20 to 24 hours; unit assumed
Procedure: as §1, §2, §3

[6] = test system: Haemophilis Influenzae DILL AMP R; conditions: Haemophilis Influenzae DILL AMP R (organism code WW); BHI agar, 35-37 °C, 20 to 24 hours; unit assumed
Procedure: as §1, §2, §3

[7] = test system: Staphylococcus aureus NCTC10649M; conditions: Staphylococcus aureus NCTC10649M (organism code EE); BHI agar, 35-37 °C, 20 to 24 hours; unit assumed
Procedure: as §1, §2, §3

[8] = test system: Mycobacterium smegmatis ATCC 114; conditions: Mycobacterium smegmatis ATCC 114 (organism code UU); BHI agar, 35-37 °C, 20 to 24 hours; unit assumed
Procedure: as §1, §2, §3

[9] = test system: Streptococcus Pheumoniae ATCC6303; conditions: Streptococcus Pheumoniae ATCC6303 (organism code XX); BHI agar, 35-37 °C, 20 to 24 hours; unit assumed
Procedure: as §1, §2, §3

[10] = test system: Streptococcus pyogenes EES61; conditions: Streptococcus pyogenes EES61 (organism code LL); BHI agar, 35-37 °C, 20 to 24 hours; unit assumed
Procedure: as §1, §2, §3

[11] = test system: Nocardia Asteroides ATCC9970; conditions: Nocardia Asteroides ATCC9970 (organism code VV); BHI agar, 35-37 °C, 20 to 24 hours; unit assumed
Procedure: as §1, §2, §3

[12] = test system: Streptococcus Pheumoniae 5649; conditions: Streptococcus Pheumoniae 5649 (organism code ZZA); BHI agar, 35-37 °C, 20 to 24 hours; unit assumed
Procedure: as §1, §2, §3

[13] = test system: Staphylococcus aureus 1775; conditions: Staphylococcus aureus 1775 (organism code GG); BHI agar, 35-37 °C, 20 to 24 hours; unit assumed
Procedure: as §1, §2, §3

[14] = test system: Streptococcus agalactiae CMX 508; conditions: Streptococcus agalactiae CMX 508 (organism code KK); BHI agar, 35-37 °C, 20 to 24 hours; unit assumed
Procedure: as §1, §2, §3

Escherichia coli JUHL = Escherichia coli JUHL (organism code QQ); BHI agar, 35-37 °C, 20 to 24 hours; unit assumed
Procedure: as §1, §2, §3

[15] = test system: Staphylococcus epidermidis 3519; conditions: Staphylococcus epidermidis 3519 (organism code HH); BHI agar, 35-37 °C, 20 to 24 hours; unit assumed
Procedure: as §1, §2, §3

[16] = test system: Staphylococcus aureus CMX 642A; conditions: Staphylococcus aureus CMX 642A (organism code DD); BHI agar, 35-37 °C, 20 to 24 hours; unit assumed
Procedure: as §1, §2, §3

[17] = test system: Staphylococcus aureus A-5278; conditions: Staphylococcus aureus A-5278 (organism code CC); BHI agar, 35-37 °C, 20 to 24 hours; unit assumed
Procedure: as §1, §2, §3

[18] = test system: Streptococcus pyogenes 930; conditions: Streptococcus pyogenes 930 (organism code MM); BHI agar, 35-37 °C, 20 to 24 hours; unit assumed
Procedure: as §1, §2, §3

[19] = test system: Staphylococcus aureus CMX 553; conditions: Staphylococcus aureus CMX 553 (organism code FF); BHI agar, 35-37 °C, 20 to 24 hours; unit assumed
Procedure: as §1, §2, §3

Candida albicans CCH 442 = Candida albicans CCH 442 (organism code TT); BHI agar, 35-37 °C, 20 to 24 hours; unit assumed
Procedure: as §1, §2, §3

[20] = test system: Streptococcus pyogenes PIU 2548; conditions: Streptococcus pyogenes PIU 2548 (organism code NN); BHI agar, 35-37 °C, 20 to 24 hours; unit assumed
Procedure: as §1, §2, §3

Escherichia coli SS = Escherichia coli SS (organism code RR); BHI agar, 35-37 °C, 20 to 24 hours; unit assumed
Procedure: as §1, §2, §3

[21] = test system: Micrococcus luteus ATCC 9341; conditions: Micrococcus luteus ATCC 9341 (organism code OO); BHI agar, 35-37 °C, 20 to 24 hours; unit assumed
Procedure: as §1, §2, §3

[22] = test system: Streptococcus Pheumoniae GYR 1171; conditions: Streptococcus Pheumoniae GYR 1171 (organism code YY); BHI agar, 35-37 °C, 20 to 24 hours; unit assumed
Procedure: as §1, §2, §3

[23] = test system: Staphylococcus aureus A5177; conditions: Staphylococcus aureus A5177 (organism code BB); BHI agar, 35-37 °C, 20 to 24 hours; unit assumed
Procedure: as §1, §2, §3

Row | Structure (SMILES) | MIC [1] | MIC (Escherichia coli DC-2) | MIC [2] | MIC [3] | MIC [4] | MIC [5] | MIC [7] | MIC [8] | MIC [9] | MIC [10] | MIC [11] | MIC [12] | MIC [13] | MIC [14] | MIC (Escherichia coli JUHL) | MIC [15] | MIC [16] | MIC [17] | MIC [19] | MIC (Candida albicans CCH 442) | further results
1 | CC[C@H]1OC(=O)[C@H](C)C(=O)[C@H](C)[C@@H](O[C@@H]2O[C@H](C)C[C@H](N(C)C3CC3)[C@H]2O)[C@](C)(OCC=Cc2cnc3ccccc3c2)C[C@@H](C)C(=O)[C@H](C)[C@H]2NC(=O)O[C@@]21C [Example 20, Compound of Formula (II); R is -CH2CH=CH-(3-quinolyl), R^p is H, W is absent, R^w is H, R^1 is cyclo-C3H5, R^2 is CH3] | 0.2 µg/mL | > 100 µg/mL | 16 µg/mL | 1.56 µg/mL | 0.39 µg/mL | 0.78 µg/mL | 3.1 µg/mL | 3.1 µg/mL | 0.03 µg/mL | 0.1 µg/mL | 3.1 µg/mL | 0.25 µg/mL | > 100 µg/mL | 0.2 µg/mL | > 100 µg/mL | 3.1 µg/mL | 1.56 µg/mL | > 100 µg/mL | 1.56 µg/mL | > 100 µg/mL | MIC [6]: 64 µg/mL; MIC [18]: > 100 µg/mL; MIC [20]: 0.39 µg/mL; MIC (Escherichia coli SS): 3.1 µg/mL; MIC [21]: 0.39 µg/mL; MIC [22]: 0.03 µg/mL; MIC [23]: 3.1 µg/mL
2 | CC[C@H]1OC(=O)[C@H](C)C(=O)[C@H](C)[C@@H](O[C@@H]2O[C@H](C)C[C@H](N(C)C(C)=O)[C@H]2O)[C@](C)(OCC=Cc2cnc3ccccc3c2)C[C@@H](C)C(=O)[C@H](C)[C@H]2NC(=O)O[C@@]21C [Example 4, Compound of Formula (II); R is -CH2CH=CH-(3-quinolyl), R^P is H, W is absent, R^w is H, R^1 is acetyl, R^2 is CH3-] | 0.2 µg/mL | > 100 µg/mL | 128 µg/mL | 6.2 µg/mL | 1.56 µg/mL | 3.1 µg/mL | 6.2 µg/mL | 25 µg/mL | 0.25 µg/mL | 0.39 µg/mL | 12.5 µg/mL | 0.25 µg/mL | > 100 µg/mL | 0.39 µg/mL | > 100 µg/mL | 6.2 µg/mL | 6.2 µg/mL | > 100 µg/mL | 6.2 µg/mL | > 100 µg/mL | MIC [6]: > 128 µg/mL; MIC [20]: 1.56 µg/mL; MIC (Escherichia coli SS): 100 µg/mL; MIC [21]: 0.39 µg/mL; MIC [22]: 0.125 µg/mL; MIC [23]: 6.2 µg/mL
3 | C#CCN(C)[C@H]1C[C@@H](C)O[C@@H](O[C@@H]2[C@@H](C)C(=O)[C@@H](C)C(=O)O[C@H](CC)[C@@]3(C)OC(=O)N[C@@H]3[C@@H](C)C(=O)[C@H](C)C[C@@]2(C)OCC=Cc2cnc3ccccc3c2)[C@@H]1O [Example 10, Compound of Formula (II); R is -CH2CH=CH-(3-quinolyl), R^p is H, W is absent, R^w is H, R^1 is CH2-C≡CH, R^2 is CH3-] | 0.02 µg/mL | > 100 µg/mL | 32 µg/mL | 0.2 µg/mL | 0.05 µg/mL | 0.39 µg/mL | 0.1 µg/mL | 1.56 µg/mL | 0.03 µg/mL | 0.01 µg/mL | 0.2 µg/mL | 0.25 µg/mL | > 100 µg/mL | 0.01 µg/mL | > 100 µg/mL | 0.2 µg/mL | 0.2 µg/mL | > 100 µg/mL | 0.2 µg/mL | > 100 µg/mL | MIC [18]: 6.2 µg/mL; MIC [20]: 0.39 µg/mL; MIC (Escherichia coli SS): 1.56 µg/mL; MIC [21]: 0.1 µg/mL; MIC [22]: 0.03 µg/mL; MIC [23]: 0.39 µg/mL
